The text below walks through data of patent US20040156874A1, “Urea- a topical anti-inflammatory” (Bradley Pharmaceuticals, Inc., priority 2003, published 2004).

For assay [1], the system named is dermal inflammation. The assay is described as follows: topical urea applied to inflamed skin. It counts as in vivo.
Assay [2] relates to common organisms. Conditions: high concentrations of urea, such as 40%; cited from earlier work.
For assay [3], the system named is horny layer of the skin. Conditions: normal horny layer or ichthyotic/psoriatic scales soaked in 30% urea solution; cited from earlier work.

Consider `NC(N)=O` [urea], for which the dermal inflammation result in assay [1] (formulated in a pharmaceutically acceptable base) is “improvement”. Besides, the “effectiveness against inflammation due to microbial infection” value in assay [1] (inflammation due to microbial infection) is listed as “particularly effective”. The antibacterial effect entry in assay [2] is listed as “mild, antibacterial effect”. Further, the “water uptake of horny layer” value in assay [3] is given as “take up much more water”.
